The target of assay [1] is T1, IDH (endogenous IDH1 R132C) in HT1080 cell (Homo sapiens, UniProt O75874, R132C).
T1 construct: which harbor endogenous heterozygous IDH1 R132C and R132H mutation respectively and accumulate D-2-HG
Description: Cell-based assay for IDH inhibition (decrease of D-2-HG) in HT1080 cells. Particulars: human fibrosarcoma cell line HT1080, 16 hours treatment, D-2-HG by LC-MS, in triplet. In outline: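 HT1080 cells with endogenous IDH1 R132C, grown in DMEM/10% FBS, treated with compound at several concentrations for 16 h. Metabolites extracted in cold 40% methanol/40% acetonitrile and D-2-HG measured by HILIC LC-MS/MS, normalized to glutamate. IC50 from D-2-HG relative to DMSO controls; run in triplicate.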

A further assay addresses T2, IDH1 R132H (Homo sapiens, UniProt O75874, R132H).
T2 construct: 6xHis
Put plainly: Biochemical assay for IDH inhibition (NADPH fluorescence), mutant IDH1 R132H. To be noted: 50 nM IDH1-R132H, 1 hour pre-incubation, in triplet. In outline:
(§1)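 Mutant enzyme (25 nM R132C or 50 nM R132H) was preincubated 1 h at room temperature with compound in pH 7.5 Tris buffer containing 1.33 mM α-KG, and the reaction was then started with NADPH (80 μM solution). NADPH consumption was followed by fluorescence (Ex 340/Em 460 nm) for 15 min. IC50 was derived from background-corrected linear rates relative to vehicle, run in triplicate.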

The target of the next assay is T3, IDH1 R132C (Homo sapiens, UniProt O75874, R132C).
T3 construct: 6xHis
Put plainly: Biochemical assay for IDH inhibition (NADPH fluorescence), mutant IDH1 R132C. Particulars: 25 nM IDH1-R132C, 1 hour pre-incubation, in triplet. In outline:
as §1

A word on the IC50: it is the concentration that gives 50% inhibition.

T3 sequence (O75874 whole entry R132C): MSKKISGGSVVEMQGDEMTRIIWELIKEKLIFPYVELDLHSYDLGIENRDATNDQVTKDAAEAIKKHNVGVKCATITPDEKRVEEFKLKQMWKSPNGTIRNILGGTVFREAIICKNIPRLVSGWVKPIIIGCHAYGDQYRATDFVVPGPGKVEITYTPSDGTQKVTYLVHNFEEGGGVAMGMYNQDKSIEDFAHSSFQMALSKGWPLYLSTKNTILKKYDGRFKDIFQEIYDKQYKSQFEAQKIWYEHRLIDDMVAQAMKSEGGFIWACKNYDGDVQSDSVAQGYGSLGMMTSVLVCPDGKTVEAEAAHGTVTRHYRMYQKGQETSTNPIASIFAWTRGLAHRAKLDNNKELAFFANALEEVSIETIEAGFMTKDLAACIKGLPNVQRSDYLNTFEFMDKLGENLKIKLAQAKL
T1 sequence (O75874 2-414 R132C): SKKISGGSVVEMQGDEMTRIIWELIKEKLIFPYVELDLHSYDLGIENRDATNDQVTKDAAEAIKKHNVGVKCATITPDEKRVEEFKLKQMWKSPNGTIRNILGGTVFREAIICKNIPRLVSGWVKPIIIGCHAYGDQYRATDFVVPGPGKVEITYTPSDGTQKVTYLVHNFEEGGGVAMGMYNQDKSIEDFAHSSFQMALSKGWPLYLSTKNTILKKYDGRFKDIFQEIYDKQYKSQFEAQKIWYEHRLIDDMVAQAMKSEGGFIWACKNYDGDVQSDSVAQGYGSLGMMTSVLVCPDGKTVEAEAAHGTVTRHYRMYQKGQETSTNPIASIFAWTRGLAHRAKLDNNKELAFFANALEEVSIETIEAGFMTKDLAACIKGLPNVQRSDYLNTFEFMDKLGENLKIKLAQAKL
T2 sequence (O75874 whole entry R132H): as the sequence (O75874 whole entry R132C) above, with C132H counted along it

Consider `CCN1Cc2c(ccnc2N[C@@H](C)c2cc(F)c(-c3cc(C(F)(F)F)cc(C)n3)cc2F)C1=O` [Compound 122, (S)-4-((1-(2,5-difluoro-4-(6-methyl-4-(trifluoromethyl)pyridin-2-yl)phenyl)ethyl)amino)-2-ethyl-2,3-dihydro-1H-pyrrolo[3,4-c]pyridin-1-one], for which the IC50 was 100 to 500 nM in assay [1], below 100 nM on IDH1 R132H and below 100 nM at IDH1 R132C.
Regarding `CCN1Cc2c(ccnc2N[C@@H](C)c2cc(F)c(-c3cc(C(F)(F)F)cc(CF)n3)cc2F)C1=O` [Compound 123, (S)-4-((1-(2,5-difluoro-4-(6-(fluoromethyl)-4-(trifluoromethyl)pyridin-2-yl)phenyl)ethyl)amino)-2-ethyl-2,3-dihydro-1H-pyrrolo[3,4-c]pyridin-1-one], the values for the IC50 (in assay [1]; on IDH1 R132H; at IDH1 R132C) were 100 to 500 nM, below 100 nM and below 100 nM, respectively.
Consider `CCN1Cc2c(ccnc2N[C@@H](C)c2cc(F)c(-c3cc(C4(C(F)(F)F)CC4)ccn3)cc2F)C1=O` [Compound 124, (S)-4-((1-(2,5-difluoro-4-(4-(1-(trifluoromethyl)cyclopropyl)pyridin-2-yl)phenyl)ethyl)amino)-2-ethyl-2,3-dihydro-1H-pyrrolo[3,4-c]pyridin-1-one], for which the IC50 (in assay [1]; on IDH1 R132H; on IDH1 R132C) was below 100 nM in each case.
As for `C/C=C(\c1ccnc(-c2cc(F)c([C@H](C)Nc3nccc4c3CN(CC)C4=O)cc2F)c1)C(F)(F)F` [Compound 125, (S,E)-4-((1-(2,5-difluoro-4-(4-(1,1,1-trifluorobut-2-en-2-yl)pyridin-2-yl)phenyl)ethyl)amino)-2-ethyl-2,3-dihydro-1H-pyrrolo[3,4-c]pyridin-1-one], the IC50 (in assay [1]; on IDH1 R132H; on IDH1 R132C) was below 100 nM in each case.
In the case of `CCN1Cc2c(ccnc2N[C@@H](C)c2cc(F)c(-c3cc(C4(C(F)(F)F)CC=NN4)ccn3)cc2F)C1=O` (stereo partly drawn) [Compound 126, 4-(((1S)-1-(2,5-difluoro-4-(4-(5-(trifluoromethyl)-4,5-dihydro-1H-pyrazol-5-yl)pyridin-2-yl)phenyl)ethyl)amino)-2-ethyl-2,3-dihydro-1H-pyrrolo[3,4-c]pyridin-1-one], the IC50 in assay [1] is 100 to 500 nM; at IDH1 R132H it was below 100 nM; at IDH1 R132C, 100 to 500 nM.
With `CCN1Cc2c(ccnc2N[C@@H](C)c2cc(F)c(-c3cc(C(C)(C)F)c(C)cn3)cc2F)C1=O` [Compound 127, (S)-4-((1-(2,5-difluoro-4-(4-(2-fluoropropan-2-yl)-5-methylpyridin-2-yl)phenyl)ethyl)amino)-2-ethyl-2,3-dihydro-1H-pyrrolo[3,4-c]pyridin-1-one], the IC50 (in assay [1]; on IDH1 R132H; on IDH1 R132C) was below 100 nM each time.
For the molecule `CCN1Cc2c(ccnc2N[C@@H](C)c2cc(F)c(-c3cc(NC(C)(C)C)cc(C)n3)cc2F)C1=O` [Compound 128, (S)-4-((1-(4-(4-(tert-butylamino)-6-methylpyridin-2-yl)-2,5-difluorophenyl)ethyl)amino)-2-ethyl-2,3-dihydro-1H-pyrrolo[3,4-c]pyridin-1-one], the IC50 in assay [1] was 100 to 500 nM; at IDH1 R132H, below 100 nM; at IDH1 R132C it was 100 to 500 nM.
Turning to `CCN1Cc2c(ccnc2N[C@@H](C)c2cc(F)c(-c3cc(OC(C)(C)C)cc(C)n3)cc2F)C1=O` [Compound 129, (S)-4-((1-(4-(4-(tert-butoxy)-6-methylpyridin-2-yl)-2,5-difluorophenyl)ethyl)amino)-2-ethyl-2,3-dihydro-1H-pyrrolo[3,4-c]pyridin-1-one], the half-inhibitory concentration (IC50) (in assay [1]; on IDH1 R132H; on IDH1 R132C) was below 100 nM each time.
Take `CCN1Cc2c(ccnc2N[C@@H](C)c2cc(F)c(-c3cc(C(C)(C)F)ncn3)cc2F)C1=O` [Compound 130, (S)-4-((1-(2,5-difluoro-4-(6-(2-fluoropropan-2-yl)pyrimidin-4-yl)phenyl)ethyl)amino)-2-ethyl-2,3-dihydro-1H-pyrrolo[3,4-c]pyridin-1-one]: the IC50 was 100 to 500 nM in assay [1], below 100 nM on IDH1 R132H and 100 to 500 nM at IDH1 R132C.
With `CCN1Cc2c(ccnc2N[C@@H](C)c2cc(F)c(-c3cc(C4(F)CC4)cc(C)n3)cc2F)C1=O` [Compound 131, (S)-4-((1-(2,5-difluoro-4-(4-(1-fluorocyclopropyl)-6-methylpyridin-2-yl)phenyl)ethyl)amino)-2-ethyl-2,3-dihydro-1H-pyrrolo[3,4-c]pyridin-1-one], the IC50 (in assay [1]; on IDH1 R132H; at IDH1 R132C) was below 100 nM throughout.
On to `CCN1Cc2c(ccnc2N[C@@H](C)c2cc(F)c(-c3cc(C(C)(C)F)ncc3OC)cc2F)C1=O` [Compound 132, (S)-4-((1-(2,5-difluoro-4-(2-(2-fluoropropan-2-yl)-5-methoxypyridin-4-yl)phenyl)ethyl)amino)-2-ethyl-2,3-dihydro-1H-pyrrolo[3,4-c]pyridin-1-one], for which the IC50 in assay [1] is 100 to 500 nM; at IDH1 R132H it was below 100 nM; at IDH1 R132C, below 100 nM.
In the case of `CCN1Cc2c(ccnc2N[C@@H](C)c2cc(F)c(-c3cc(C(C)(C)F)c(F)c(C)n3)cc2F)C1=O` [Compound 133, (S)-4-((1-(2,5-difluoro-4-(5-fluoro-4-(2-fluoropropan-2-yl)-6-methylpyridin-2-yl)phenyl)ethyl)amino)-2-ethyl-2,3-dihydro-1H-pyrrolo[3,4-c]pyridin-1-one], the IC50 (in assay [1]; at IDH1 R132H; on IDH1 R132C) was below 100 nM in each case.
As to `CCN1Cc2c(ccnc2N[C@@H](C)c2cc(F)c(-c3nc(C)cc(C(C)(C)F)c3F)cc2F)C1=O` [Compound 134, (S)-4-((1-(2,5-difluoro-4-(3-fluoro-4-(2-fluoropropan-2-yl)-6-methylpyridin-2-yl)phenyl)ethyl)amino)-2-ethyl-2,3-dihydro-1H-pyrrolo[3,4-c]pyridin-1-one], the IC50 (in assay [1]; at IDH1 R132H; on IDH1 R132C) was below 100 nM in each case.
As to `CCN1Cc2c(ccnc2N[C@@H](C)c2cc(F)c(-c3cc(C(C)(C)F)c(OC)cn3)cc2F)C1=O` [Compound 135, (S)-4-((1-(2,5-difluoro-4-(4-(2-fluoropropan-2-yl)-5-methoxypyridin-2-yl)phenyl)ethyl)amino)-2-ethyl-2,3-dihydro-1H-pyrrolo[3,4-c]pyridin-1-one], the IC50 (in assay [1]; on IDH1 R132H; on IDH1 R132C) was below 100 nM in each case.
For `CCN1Cc2c(ccnc2N[C@@H](C)c2cc(F)c(-c3cc(C(C)(C)F)c(Cl)cn3)cc2F)C1=O` [Compound 136, (S)-4-((1-(4-(5-chloro-4-(2-fluoropropan-2-yl)pyridin-2-yl)-2,5-difluorophenyl)ethyl)amino)-2-ethyl-2,3-dihydro-1H-pyrrolo[3,4-c]pyridin-1-one], the IC50 (in assay [1]; at IDH1 R132H; on IDH1 R132C) was below 100 nM in each case.
With `CCN1Cc2c(ccnc2N[C@@H](C)c2cc(F)c(-c3cc(C(C)(C)F)c(F)cn3)cc2F)C1=O` [Compound 137, (S)-4-((1-(2,5-difluoro-4-(5-fluoro-4-(2-fluoropropan-2-yl)pyridin-2-yl)phenyl)ethyl)amino)-2-ethyl-2,3-dihydro-1H-pyrrolo[3,4-c]pyridin-1-one], the IC50 (in assay [1]; at IDH1 R132H; on IDH1 R132C) was below 100 nM each time.
As to `CCN1Cc2c(ccnc2N[C@@H](C)c2cc(F)c(-c3cc(C(C)(C)C)ncc3O)cc2F)C1=O` [Compound 138, (S)-4-((1-(4-(2-(tert-butyl)-5-hydroxypyridin-4-yl)-2,5-difluorophenyl)ethyl)amino)-2-ethyl-2,3-dihydro-1H-pyrrolo[3,4-c]pyridin-1-one], the IC50 (in assay [1]; on IDH1 R132H; at IDH1 R132C) was below 100 nM in each case.
Turning to `CCN1Cc2c(ccnc2N[C@@H](C)c2cc(F)c(-c3cc(C(C)(C)F)ncc3CF)cc2F)C1=O` [Compound 139, (S)-4-((1-(2,5-difluoro-4-(5-(fluoromethyl)-2-(2-fluoropropan-2-yl)pyridin-4-yl)phenyl)ethyl)amino)-2-ethyl-2,3-dihydro-1H-pyrrolo[3,4-c]pyridin-1-one], the IC50 in assay [1] was below 100 nM; at IDH1 R132H, below 100 nM; on IDH1 R132C, 100 to 500 nM.
For the molecule `CCN1Cc2c(ccnc2N[C@@H](C)c2cc(F)c(-c3cc(C(C)(C)F)nc(OC)n3)cc2F)C1=O` [Compound 141, (S)-4-((1-(2,5-difluoro-4-(6-(2-fluoropropan-2-yl)-2-methoxypyrimidin-4-yl)phenyl)ethyl)amino)-2-ethyl-2,3-dihydro-1H-pyrrolo[3,4-c]pyridin-1-one], the IC50 (in assay [1]; on IDH1 R132H; on IDH1 R132C) was below 100 nM in each case.
`CCN1Cc2c(ccnc2N[C@@H](C)c2cc(F)c(-c3cc(C(F)(F)F)cc(OC)n3)cc2F)C1=O` [Compound 142, (S)-4-((1-(2,5-difluoro-4-(6-methoxy-4-(trifluoromethyl)pyridin-2-yl)phenyl)ethyl)amino)-2-ethyl-2,3-dihydro-1H-pyrrolo[3,4-c]pyridin-1-one]: the IC50 was 100 to 500 nM in assay [1], below 100 nM at IDH1 R132H and 100 to 500 nM on IDH1 R132C.
